{
  "source": "patent US8759532B2",
  "about": "“Pyridine and pyrimidine derivatives as phosphodiesterase 10 inhibitors” (AMGEN Inc., priority 2008, dated 2014)",
  "target": "PDE10 (Mus musculus, UniProt Q8CA95)",
  "sequence (Q8CA95 whole entry, looked up)": "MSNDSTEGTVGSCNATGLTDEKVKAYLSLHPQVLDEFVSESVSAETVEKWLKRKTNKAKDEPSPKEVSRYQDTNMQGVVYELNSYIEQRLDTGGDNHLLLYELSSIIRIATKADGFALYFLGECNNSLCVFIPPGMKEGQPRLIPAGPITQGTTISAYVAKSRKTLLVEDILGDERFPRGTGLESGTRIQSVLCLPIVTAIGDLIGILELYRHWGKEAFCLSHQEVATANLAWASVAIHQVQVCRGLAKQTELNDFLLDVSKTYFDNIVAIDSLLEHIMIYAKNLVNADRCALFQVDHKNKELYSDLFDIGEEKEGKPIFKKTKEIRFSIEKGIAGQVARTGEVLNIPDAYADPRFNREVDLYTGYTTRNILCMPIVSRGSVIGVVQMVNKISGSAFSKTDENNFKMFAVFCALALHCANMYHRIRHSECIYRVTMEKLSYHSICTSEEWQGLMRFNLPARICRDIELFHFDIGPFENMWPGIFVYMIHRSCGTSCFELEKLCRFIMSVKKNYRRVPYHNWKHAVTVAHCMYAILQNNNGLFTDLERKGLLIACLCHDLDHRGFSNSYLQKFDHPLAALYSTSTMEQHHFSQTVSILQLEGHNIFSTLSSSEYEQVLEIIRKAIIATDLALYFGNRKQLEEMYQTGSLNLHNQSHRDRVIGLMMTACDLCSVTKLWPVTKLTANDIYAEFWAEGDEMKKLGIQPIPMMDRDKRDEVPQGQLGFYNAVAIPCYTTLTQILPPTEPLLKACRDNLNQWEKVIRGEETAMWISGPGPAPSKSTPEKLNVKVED",
  "experiment": "PDE10 enzyme inhibition, IMAP TR-FRET assay",
  "type": "biochemical",
  "description": "MPDE10A7 Enzyme Activity and Inhibition\nAn IMAP TR-FRET assay was used to analyze the enzyme activity (Molecular Devices Corp., Sunnyvale Calif.). 5 μL of serial diluted PDE10A (BPS Bioscience, San Diego, Calif.) or tissue homogenate was incubated with equal volumes of diluted fluorescein labeled cAMP or cGMP for 60 min in 384-well polystyrene assay plates (Corning, Corning, N.Y.) at room temperature. After incubation, the reaction was stopped by adding 60 μL of diluted binding reagents and was incubated for 3 hours to overnight at room temperature. The plates were read on an Envision (Perkin Elmer, Waltham, Mass.) for time resolved fluorescence resonance energy transfer. The data were analyzed with GraphPad Prism (La Jolla, Calif.).\nTo check the inhibition profile, 5 μL of serial diluted compounds were incubated with 5 μL of diluted PDE10 enzyme (BPS Bioscience, San Diego, Calif.) or tissue homogenate in a 384-well polystyrene assay plate (Corning, Corning, N.Y.) for 30 min at room temperature. After incubation, 10 μL of diluted fluorescein labeled cAMP or cGMP substrate were added and incubated for 60 min at room temperature. The reaction was stopped by adding 60 μL of diluted binding reagents and plates were read on an Envision (Perkin Elmer, Waltham, Mass.) for time resolved fluorescence resonance energy transfer. The data were analyzed with GraphPad Prism (La Jolla, Calif.).\nThe tabulated IC50 data represent an average IC50 data for each compound.",
  "data": [
    {"compound": "FC(F)(F)c1cc(-c2cccnc2Oc2ccc(Cc3nc4ccccc4[nH]3)cc2)ccn1", "note": "[Example 62, 2-(4-(2′-(trifluoromethyl)-3,4′-bipyriidn-2-yloxy)benzyl)-1H-benzo[d]imidazole]", "values": [
      {"measurement": "IC50", "setting": "IC50 class against PDE10, Table IA", "value": "100 to 250", "unit": "nM"}
    ]},
    {"compound": "(R)-4-(2-(4-(1H-benzo[d]imidazole-2-carbonyl)phenoxy)pyridin-3-yl)-1-methylpyrrolidin-2-one and (S)-4-(2-(4-(1H-benzo[d]imidazole-2-carbonyl)phenoxy)pyridin-3-yl)-1-methylpyrrolidin-2-one [Example 209]", "values": [
      {"measurement": "IC50", "setting": "IC50 class against PDE10, printed at end of example text", "value": "< 25", "unit": "nM"}
    ]},
    {"compound": "COc1cnccc1-c1cccnc1Oc1ccc(Nc2nc3ccccc3s2)cc1", "note": "[Example 165, N-(4-(3′-methoxy-3,4′-bipyriidn-2-yloxy)phenyl)benzo[d]thiazol-2-amine]", "values": [
      {"measurement": "IC50", "setting": "IC50 class against PDE10, Table IIA", "value": "< 25", "unit": "nM"}
    ]}
  ]
}
